Measurements: US11591355B2 (Peloton Therapeutics, Inc., priority 2017, dated 2023)

Columns and labels:
Human CD73 = biological target: T1, Human CD73 (Homo sapiens, UniProt P21589); assay: CD73 Enzyme Assay; format: biochemical; settings: 0.25 nM hCD73, 25 μM AMP, kinetic read at 360 nm; read-out: CD73 Enzyme Assay IC50
T1 construct: purchased R&D Systems; host or cells: CHO cells
T1 sequence (P21589 27-549): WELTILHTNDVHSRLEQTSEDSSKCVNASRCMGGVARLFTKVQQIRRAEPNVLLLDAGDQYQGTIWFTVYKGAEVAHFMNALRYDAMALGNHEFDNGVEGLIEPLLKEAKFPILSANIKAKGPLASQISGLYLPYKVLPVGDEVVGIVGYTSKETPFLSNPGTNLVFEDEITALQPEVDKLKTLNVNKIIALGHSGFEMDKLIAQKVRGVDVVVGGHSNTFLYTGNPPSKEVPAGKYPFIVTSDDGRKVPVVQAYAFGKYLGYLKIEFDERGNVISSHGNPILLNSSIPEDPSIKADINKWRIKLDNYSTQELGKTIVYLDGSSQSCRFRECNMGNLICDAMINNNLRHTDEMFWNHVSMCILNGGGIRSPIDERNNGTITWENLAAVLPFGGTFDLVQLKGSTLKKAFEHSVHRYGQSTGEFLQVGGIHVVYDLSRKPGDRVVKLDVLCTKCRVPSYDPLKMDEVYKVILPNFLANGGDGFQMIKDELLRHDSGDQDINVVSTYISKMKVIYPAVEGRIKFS

[1] = biological target: T2, CD73 on U138 human neuroglioma cells (Homo sapiens, UniProt P21589); assay: CD73 Cell-Based Assay; settings: U138 cells, AMP substrate, 2 hours at 37° C., inorganic phosphate by malachite green
T2 construct: U138 cells were obtained from ATCC and cultured in DMEM with 10% FBS; host or cells: U138 human neuroglioma cells
T2 sequence (P21589 27-549): T1 sequence (P21589 27-549)
Outline: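 Whole U138 cells washed free of phosphate were incubated with 200 μM AMP (mixture concentration before equal-volume addition) plus compound in HEPES-buffered saline, pH 7.4, for 2 h at 37 °C, 5% CO2. Adenosine-forming activity read as inorganic phosphate released into supernatant by malachite green.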

SMILES | IC50 (Human CD73) [nM] | IC50 [1] [nM]
CC[C@@H](Nc1nc(Cl)nc2c1ccn2[C@@H]1O[C@H](COCP(=O)(O)O)[C@@H](O)[C@H]1O)c1ccccc1 [Compound 77, [(2R,3S,4R,5R)-5-[2-chloro-4-[[(1R)-1-phenylpropyl]amino]-pyrrolo[2,3-d]-pyrimidin-7-yl]-3,4-dihydroxy-tetrahydro-furan-2-yl]methoxy-methylphosphonic acid] | 10 to 100 | 10 to 100
CC(C)[C@@H](Nc1nc(Cl)nc2c1ccn2[C@@H]1O[C@H](COCP(=O)(O)O)[C@@H](O)[C@H]1O)c1ccccc1 [Compound 78] | 10 to 100 | < 10
C[C@H](Nc1nc(Cl)nc2c1ccn2[C@@H]1O[C@H](COCP(=O)(O)O)[C@@H](O)[C@H]1O)c1ccccc1F [Compound 79, [(2R,3S,4R,5R)-5-[2-chloro-4-[[(1S)-1-(2-fluorophenyl)ethyl]-amino]pyrrolo[2,3-d]-pyrimidin-7-yl]-3,4-dihydroxy-tetrahydro-furan-2-yl]methoxy-methylphosphonic acid] | < 10 | 10 to 100
C[C@H](Nc1nc(C#N)nc2c1ccn2[C@@H]1O[C@H](COCP(=O)(O)O)[C@@H](O)[C@H]1O)c1ccccc1F [Compound 80, [(2R,3S,4R,5R)-5-[2-cyano-4-[[(1S)-1-(2-fluorophenyl)ethyl]-amino]pyrrolo[2,3-d]-pyrimidin-7-yl]-3,4-dihydroxy-tetrahydro-furan-2-yl]methoxy-methylphosphonic acid] | < 10 | < 10
C[C@@H](Nc1nc(C#N)nc2c1ccn2[C@@H]1O[C@H](COCP(=O)(O)O)[C@@H](O)[C@H]1O)c1cccc(F)c1 [Compound 81, [(2R,3S,4R,5R)-5-[2-cyano-4-[[(1R)-1-(3-fluorophenyl)ethyl]-amino]pyrrolo[2,3-d]-pyrimidin-7-yl]-3,4-dihydroxy-tetrahydro-furan-2-yl]methoxy-methylphosphonic acid] | < 10 | < 10
C[C@@H](Nc1nc(Cl)nc2c1ccn2[C@@H]1O[C@H](COCP(=O)(O)O)[C@@H](O)[C@H]1O)c1cccc(F)c1 [Compound 82, [(2R,3S,4R,5R)-5-[2-chloro-4-[[(1R)-1-(3-fluorophenyl)ethyl]-amino]pyrrolo[2,3-d]-pyrimidin-7-yl]-3,4-dihydroxy-tetrahydro-furan-2-yl]methoxy-methylphosphonic acid] | 10 to 100 | < 10
O=P(O)(O)COC[C@H]1O[C@@H](n2ccc3c(NC4CC(F)(F)C4)nc(Cl)nc32)[C@H](O)[C@@H]1O [Compound 83, [(2R,3S,4R,5R)-5-[2-chloro-4-[(3,3-difluoro-cyclobutyl)amino]-pyrrolo[2,3-d]-pyrimidin-7-yl]-3,4-dihydroxy-tetrahydro-furan-2-yl]methoxy-methylphosphonic acid] | < 10 | < 10
CC[C@H](Nc1nc(Cl)nc2c1ccn2[C@@H]1O[C@H](COCP(=O)(O)O)[C@@H](O)[C@H]1O)c1ccccc1 [Compound 84, [(2R,3S,4R,5R)-5-[2-chloro-4-[[(1S)-1-phenylpropyl]amino]-pyrrolo[2,3-d]-pyrimidin-7-yl]-3,4-dihydroxy-tetrahydro-furan-2-yl]methoxy-methylphosphonic acid] | < 10 | < 10
CC(C)[C@H](Nc1nc(Cl)nc2c1ccn2[C@@H]1O[C@H](COCP(=O)(O)O)[C@@H](O)[C@H]1O)c1ccccc1 [Compound 85, [(2R,3S,4R,5R)-5-[2-chloro-4-[[(1S)-2-methyl-1-phenyl-propyl]amino]pyrrolo-[2,3-d]pyrimidin-7-yl]-3,4-dihydroxy-tetrahydrofuran-2-yl]methoxymethyl-phosphonic acid] | < 10 | < 10

Now from value to compound:

IC50 (Human CD73) [nM] | IC50 [1] [nM] | SMILES
100 to 1000 | 100 to 1000 | Nc1nc(Cl)nc2c1ccn2[C@@H]1O[C@H](COCP(=O)(O)O)[C@@H](O)[C@H]1O [Compound 86, [(2R,3S,4R,5R)-5-(4-amino-2-chloro-pyrrolo[2,3-d]-pyrimidin-7-yl)-3,4-dihydroxy-tetrahydro-furan-2-yl]methoxy-methylphosphonic acid]
< 10 | < 10 | C[C@@H](Nc1nc(Cl)nc2c1ccn2[C@@H]1O[C@H](COCP(=O)(O)O)[C@@H](O)[C@H]1O)c1ccccc1F [Compound 87, [(2R,3S,4R,5R)-5-[2-chloro-4-[[(1R)-1-(2-fluorophenyl)ethyl]-amino]pyrrolo[2,3-d]-pyrimidin-7-yl]-3,4-dihydroxy-tetrahydro-furan-2-yl]methoxy-methylphosphonic acid]
< 10 | < 10 | C[C@@H](Nc1nc(C#N)nc2c1ccn2[C@@H]1O[C@H](COCP(=O)(O)O)[C@@H](O)[C@H]1O)c1ccccc1F [Compound 88, [(2R,3S,4R,5R)-5-[2-cyano-4-[[(1R)-1-(2-fluorophenyl)ethyl]-amino]pyrrolo[2,3-d]-pyrimidin-7-yl]-3,4-dihydroxy-tetrahydro-furan-2-yl]methoxy-methylphosphonic acid]
< 10 | < 10 | C[C@@H](Nc1nc(Cl)nc2c1ccn2[C@@H]1O[C@H](COCP(=O)(O)O)[C@@H](O)[C@H]1O)c1ccc(C#N)cc1 [Compound 89, [(2R,3S,4R,5R)-5-[2-chloro-4-[[(1R)-1-(4-cyanophenyl)ethyl]-amino]pyrrolo[2,3-d]-pyrimidin-7-yl]-3,4-dihydroxy-tetrahydro-furan-2-yl]methoxy-methylphosphonic acid]
< 10 | < 10 | Cc1ccc([C@H](C)Nc2nc(Cl)nc3c2ccn3[C@@H]2O[C@H](COCP(=O)(O)O)[C@@H](O)[C@H]2O)cc1 [Compound 90, [(2R,3S,4R,5R)-5-[2-chloro-4-[[(1S)-1-(p-tolyl)ethyl]amino]-pyrrolo[2,3-d]-pyrimidin-7-yl]-3,4-dihydroxy-tetrahydro-furan-2-yl]methoxy-methylphosphonic acid]
< 10 | < 10 | Cc1ccc([C@H](C)Nc2nc(C#N)nc3c2ccn3[C@@H]2O[C@H](COCP(=O)(O)O)[C@@H](O)[C@H]2O)cc1 [Compound 91, [(2R,3S,4R,5R)-5-[2-cyano-4-[[(1S)-1-(p-tolyl)ethyl]amino]-pyrrolo[2,3-d]-pyrimidin-7-yl]-3,4-dihydroxy-tetrahydro-furan-2-yl]methoxy-methylphosphonic acid]
< 10 | < 10 | CC(C)Nc1nc(Cl)nc2c1ccn2[C@@H]1O[C@H](COCP(=O)(O)O)[C@@H](O)[C@H]1O [Compound 92, [(2R,3S,4R,5R)-5-[2-chloro-4-(isopropyl-amino)pyrrolo[2,3-d]-pyrimidin-7-yl]-3,4-dihydroxy-tetrahydro-furan-2-yl]methoxy-methylphosphonic acid]
< 10 | 10 to 100 | CN(C)c1nc(Cl)nc2c1ccn2[C@@H]1O[C@H](COCP(=O)(O)O)[C@@H](O)[C@H]1O [Compound 93, [(2R,3S,4R,5R)-5-[2-chloro-4-(dimethyl-amino)pyrrolo[2,3-d]-pyrimidin-7-yl]-3,4-dihydroxy-tetrahydro-furan-2-yl]methoxy-methylphosphonic acid]
< 10 | < 10 | C[C@@H](Nc1nc(Cl)nc2c1ccn2[C@@H]1O[C@H](COCP(=O)(O)O)[C@@H](O)[C@H]1O)c1ccc(Cl)cc1 [Compound 94, [(2R,3S,4R,5R)-5-[2-chloro-4-[[(1R)-1-(4-chlorophenyl)ethyl]-amino]pyrrolo[2,3-d]-pyrimidin-7-yl]-3,4-dihydroxy-tetrahydro-furan-2-yl]methoxy-methylphosphonic acid]
10 to 100 | 10 to 100 | C[C@@H](Nc1nc(C#N)nc2c1ccn2[C@@H]1O[C@H](COCP(=O)(O)O)[C@@H](O)[C@H]1O)c1ccc(C#N)cc1 [Compound 95, [(2R,3S,4R,5R)-5-[2-cyano-4-[[(1R)-1-(4-cyanophenyl)ethyl]-amino]pyrrolo[2,3-d]-pyrimidin-7-yl]-3,4-dihydroxy-tetrahydro-furan-2-yl]methoxy-methylphosphonic acid]
100 to 1000 | 100 to 1000 | CNc1nc(Cl)nc2c1ccn2[C@@H]1O[C@H](COCP(=O)(O)O)[C@@H](O)[C@H]1O [Compound 96, [(2R,3S,4R,5R)-5-[2-chloro-4-(methyl-amino)pyrrolo[2,3-d]-pyrimidin-7-yl]-3,4-dihydroxy-tetrahydro-furan-2-yl]methoxy-methylphosphonic acid]
10 to 100 | < 10 | CC(C)Nc1nc(C#N)nc2c1ccn2[C@@H]1O[C@H](COCP(=O)(O)O)[C@@H](O)[C@H]1O [Compound 97, [(2R,3S,4R,5R)-5-[2-cyano-4-(isopropyl-amino)pyrrolo[2,3-d]-pyrimidin-7-yl]-3,4-dihydroxy-tetrahydro-furan-2-yl]methoxy-methylphosphonic acid]
